From paper PMC9267128, “New 2-[(4-Amino-6-N-substituted-1,3,5-triazin-2-yl)methylthio]-N-(imidazolidin-2-ylidene)-4-chloro-5-methylbenzenesulfonamide Derivatives, Design, Synthesis and Anticancer Evaluation” (International Journal of Molecular Sciences, 2022)

Legend:
HCT-116 (colon cancer) = experiment: MTT cell viability assay, HCT-116; type: cell-based, human; conditions: for IC50: MTT assay, 72 h of incubation
Procedure: (§1) Analysis was performed using an MTT assay after 72 h of incubation.
(§2) All chemicals, if not stated otherwise, were obtained from Sigma–Aldrich (St. Louis, MO, USA). The HCT-116 cell line was purchased from ATCC (ATCC-No: CCL-247), while the MCF-7, HeLa and HaCaT cell lines were purchased from Cell Lines Services (Eppelheim, Germany). Cells were cultured in Dulbecco’s modified Eagle’s medium (DMEM) supplemented with 10% fetal bovine serum, 2 mM glutamine, 100 units/mL penicillin and 100 µg/mL streptomycin. Cultures were maintained in a humidified atmosphere with 5% carbon dioxide at 37 °C in an incubator (Heraceus, HeraCell).
(§3) Cell viability was examined using the MTT [3-(4,5-dimethylthiazol-2-yl)-2,5-diphenyltetrazolium bromide] assay. Cells were seeded in 96-well plates at a density of 3 × 10^3 cells/well and treated for 72 h with the tested compounds in the concentration range of 1–100 µM. Then, MTT (0.5 mg/mL) was added to the medium and cells were further incubated for 2 h at 37 °C. In the next stage, cells were lysed with DMSO and the absorbance of the formazan solution was measured at 550 nm with a plate reader (1420 multilabel counter, Victor, Jügesheim, Germany). The experiment was performed in triplicate. Values are expressed as the mean ± SD of at least three independent experiments.

[1] = tested on: HaCaT (human keratinocyte cell line); experiment: MTT cell viability assay, non-cancerous HaCaT; type: cell-based; conditions: Homo sapiens, HaCaT, 72 h, 72 h of incubation, non-cancerous keratinocytes
Procedure: (§4) Compounds 20–162 were evaluated in vitro for their effects on the viability of three cancer cell lines: HCT-116 (colon cancer), MCF-7 (breast cancer) and HeLa (cervical cancer), as well as the non-cancerous keratinocyte cell line (HaCaT). […] Analysis was performed using an MTT assay after 72 h of incubation.
as §2
as §3, with “experiments. Cisplatin was used as a positive control.” for “experiments.”

MCF-7 (breast cancer) = experiment: MTT cell viability assay, MCF-7; type: cell-based, human; conditions: for IC50: Homo sapiens, MCF7, 72 h, MTT assay, 72 h of incubation
Procedure: as §4, §2
as §3, with “experiments. Cisplatin was used as a positive control.” for “experiments.”

HeLa (cervical cancer) = experiment: MTT cell viability assay, HeLa; type: cell-based, human; conditions: for IC50: Homo sapiens, HeLa, MTT assay, 72 h of incubation
Procedure: as §1, §2, §3

Structure (SMILES) | IC50 (HCT-116 (colon cancer); Homo sapiens, HCT-116, 72 h) | Selectivity Index (SI) HCT-116 (HCT-116 (colon cancer); IC50 value toward HaCaT cells/IC50 value toward HCT-116) | IC50 (HCT-116 (colon cancer)) | IC50 [1] | IC50 (MCF-7 (breast cancer)) | Selectivity Index (SI) MCF-7 (MCF-7 (breast cancer); IC50 value toward HaCaT cells/IC50 value toward MCF-7) | IC50 (HeLa (cervical cancer)) | Selectivity Index (SI) HeLa (HeLa (cervical cancer); IC50 value toward HaCaT cells/IC50 value toward HeLa)
Cc1cc(S(=O)(=O)N=C2NCCCN2Cc2ccc(C(F)(F)F)cc2)c(SCc2nc(N)nc(N3CCN(Cc4ccccc4)CC3)n2)cc1Cl [Compound 162] | < 6 µM | 4.5 | 5.5 ± 0.3 µM | 25 ± 0.7 µM | 6 ± 0.2 µM | 4.1 | 12.5 ± 0.5 µM | 2.0
COc1ccccc1N1CCN(c2nc(N)nc(CSc3cc(Cl)c(C)cc3S(=O)(=O)N=C3NCCN3Cc3ccccc3)n2)CC1 [Compound 66] | 12 ± 0.4 µM | – | – | 36 ± 2 µM | 29 ± 1 µM | – | 20 ± 1 µM | –
Cc1cc(S(=O)(=O)N=C2NCCN2Cc2ccc(Br)cc2)c(SCc2nc(N)nc(N3CCN(c4ccccc4)CC3)n2)cc1Cl [Compound 106] | 8.5 ± 0.1 µM | – | – | 110 ± 4 µM | 6.5 ± 0.4 µM | – | 82 ± 4 µM | –
Cc1cc(S(=O)(=O)N=C2NCCN2Cc2cccc(C(F)(F)F)c2)c(SCc2nc(N)nc(N3CCN(Cc4ccccc4)CC3)n2)cc1Cl [Compound 117] | 16 ± 0.5 µM | – | – | 36 ± 2 µM | 17 ± 1 µM | – | 12 ± 0.2 µM | –
COc1ccccc1N1CCN(c2nc(N)nc(CSc3cc(Cl)c(C)cc3S(=O)(=O)N=C3NCCN3)n2)CC1 [Compound 41] | 21 ± 1 µM | – | – | 51 ± 3 µM | 46 ± 1 µM | – | 39 ± 2 µM | –
Cc1cc(S(=O)(=O)N=C2NCCN2Cc2ccc(C(F)(F)F)cc2)c(SCc2nc(N)nc(NCc3ccccc3)n2)cc1Cl [Compound 127] | 17 ± 0.5 µM | – | – | 39 ± 2 µM | 17.5 ± 1 µM | – | 18 ± 1 µM | –
COc1ccc(Nc2nc(N)nc(CSc3cc(Cl)c(C)cc3S(=O)(=O)N=C3NCCN3Cc3ccc(F)cc3)n2)cc1 [Compound 88] | 17 ± 0.5 µM | – | – | 43 ± 2 µM | 31 ± 1 µM | – | 25 ± 2 µM | –
Cc1cc(S(=O)(=O)N=C2NCCCN2Cc2ccc(C(F)(F)F)cc2)c(SCc2nc(N)nc(N3CCN(c4ccc(Cl)cc4)CC3)n2)cc1Cl [Compound 161] | 6.5 ± 0.1 µM | – | – | 27 ± 1 µM | 6.5 ± 0.2 µM | – | 14 ± 0.5 µM | –
Cc1cc(S(=O)(=O)N=C2NCCN2Cc2cc(C(F)(F)F)cc(C(F)(F)F)c2)c(SCc2nc(N)nc(N3CCN(c4ccc(Cl)c(Cl)c4)CC3)n2)cc1Cl [Compound 155] | 5 ± 0.1 µM | – | – | 19 ± 1 µM | 6 ± 0.1 µM | – | 10 ± 0.1 µM | –
Cc1cc(S(=O)(=O)N=C2NCCN2Cc2cc(C(F)(F)F)cc(C(F)(F)F)c2)c(SCc2nc(N)nc(N3CCN(c4ccc(Cl)cc4)CC3)n2)cc1Cl [Compound 154] | 5 ± 0.1 µM | – | – | 26 ± 1 µM | 6.5 ± 0.2 µM | – | 12 ± 1 µM | –
Cc1cc(S(=O)(=O)N=C2NCCN2Cc2ccc(C(F)(F)F)cc2)c(SCc2nc(N)nc(N3CCN(c4cccc(C(F)(F)F)c4)CC3)n2)cc1Cl [Compound 135] | 5 ± 0.2 µM | – | – | 19 ± 1 µM | 6.5 ± 0.3 µM | – | 7 ± 0.2 µM | –
Cc1cc(S(=O)(=O)N=C2NCCN2)c(SCc2nc(N)nc(N3CCN(c4ccc(F)cc4)CC3)n2)cc1Cl [Compound 32] | 14 ± 0.5 µM | – | – | 28 ± 1 µM | 16 ± 0.5 µM | – | 14 ± 0.5 µM | –
Cc1cc(S(=O)(=O)N=C2NCCN2Cc2ccc(C(F)(F)F)cc2)c(SCc2nc(N)nc(N3CCN(C)CC3)n2)cc1Cl [Compound 130] | 10.5 ± 0.4 µM | – | – | 36 ± 1 µM | 8 ± 0.3 µM | – | 17 ± 0.5 µM | –
Cc1cc(S(=O)(=O)N=C2NCCN2Cc2cccc3ccccc23)c(SCc2nc(N)nc(N(C)c3ccc(Cl)cc3)n2)cc1Cl [Compound 76] | 46 ± 1 µM | – | – | 99 ± 4 µM | 25 ± 1 µM | – | 28 ± 2 µM | –
Cc1cc(S(=O)(=O)N=C2NCCN2Cc2cccc3ccccc23)c(SCc2nc(N)nc(Nc3ccccc3)n2)cc1Cl [Compound 75] | 30 ± 2 µM | – | – | 110 ± 5 µM | 8 ± 0.5 µM | – | 77 ± 5 µM | –
Cc1cc(S(=O)(=O)N=C2NCCN2)c(SCc2nc(N)nc(N3CCN(c4ccc(Cl)cc4)CC3)n2)cc1Cl [Compound 36] | 12 ± 0.1 µM | – | – | 28 ± 1 µM | 13 ± 0.1 µM | – | 12 ± 0.1 µM | –
Cc1cc(S(=O)(=O)N=C2NCCN2Cc2ccc(F)cc2)c(SCc2nc(N)nc(N3CCN(c4ccc(Cl)cc4)CC3)n2)cc1Cl [Compound 96] | 6 ± 0.3 µM | – | – | 22 ± 1 µM | 6 ± 0.2 µM | – | 9 ± 0.3 µM | –
Cc1cc(S(=O)(=O)N=C2NCCN2Cc2ccc(C(F)(F)F)cc2)c(SCc2nc(N)nc(Nc3ccc(C(F)(F)F)cc3)n2)cc1Cl [Compound 125] | 7.5 ± 0.2 µM | – | – | 25 ± 1 µM | 7.5 ± 0.2 µM | – | 13 ± 0.5 µM | –
Cc1cc(S(=O)(=O)N=C2NCCN2)c(SCc2nc(N)nc(N3CCN(c4cccc(Cl)c4)CC3)n2)cc1Cl [Compound 37] | 18 ± 0.5 µM | – | – | 37 ± 2 µM | 19 ± 1 µM | – | 24 ± 1 µM | –
Cc1cc(S(=O)(=O)N=C2NCCN2Cc2ccc(Br)cc2)c(SCc2nc(N)nc(N(C)c3ccc(Cl)cc3)n2)cc1Cl [Compound 105] | 13 ± 0.8 µM | – | – | 35 ± 2 µM | 10 ± 0.2 µM | – | 17 ± 0.5 µM | –
Cc1cc(S(=O)(=O)N=C2NCCN2Cc2cc(C(F)(F)F)cc(C(F)(F)F)c2)c(SCc2nc(N)nc(N3CCCc4ccccc43)n2)cc1Cl [Compound 145] | 13 ± 0.5 µM | – | – | 36 ± 1 µM | 13 ± 0.8 µM | – | 16.5 ± 1 µM | –
Cc1cc(S(=O)(=O)N=C2NCCN2Cc2ccc(C(F)(F)F)cc2)c(SCc2nc(N)nc(N3CCN(c4cccc(Cl)c4)CC3)n2)cc1Cl [Compound 137] | 6 ± 0.2 µM | – | – | 21 ± 1 µM | 7 ± 0.4 µM | – | 12 ± 0.6 µM | –
Cc1cc(S(=O)(=O)N=C2NCCCN2Cc2ccc(C(F)(F)F)cc2)c(SCc2nc(N)nc(N3CCN(c4ccccc4)CC3)n2)cc1Cl [Compound 159] | 9 ± 0.5 µM | – | – | 29 ± 1 µM | 10 ± 0.3 µM | – | 15.5 ± 0.5 µM | –
Cc1cc(S(=O)(=O)N=C2NCCN2Cc2ccc(C(F)(F)F)cc2)c(SCc2nc(N)nc(N3CCOCC3)n2)cc1Cl [Compound 119] | 13 ± 0.4 µM | – | – | 41 ± 2 µM | 13.5 ± 1 µM | – | 18 ± 1 µM | –
Cc1cc(S(=O)(=O)N=C2NCCN2Cc2ccc(F)cc2)c(SCc2nc(N)nc(N3CCN(C)CC3)n2)cc1Cl [Compound 91] | 20 ± 1 µM | – | – | 54 ± 2 µM | 13 ± 0.4 µM | – | 34 ± 2 µM | –
Cc1cc(S(=O)(=O)N=C2NCCN2Cc2ccc(C(F)(F)F)cc2)c(SCc2nc(N)nc(N3CCN(c4ccccc4F)CC3)n2)cc1Cl [Compound 133] | 8 ± 0.3 µM | – | – | 25 ± 1 µM | 16 ± 0.5 µM | – | 14 ± 1 µM | –
COc1ccc(N2CCN(c3nc(N)nc(CSc4cc(Cl)c(C)cc4S(=O)(=O)N=C4NCCN4Cc4ccc(C(F)(F)F)cc4)n3)CC2)cc1 [Compound 139] | 6 ± 0.1 µM | – | – | 24 ± 1 µM | 13 ± 1 µM | – | 12 ± 1 µM | –
Cc1cc(S(=O)(=O)N=C2NCCN2)c(SCc2nc(N)nc(NCc3ccccc3)n2)cc1Cl [Compound 27] | 39 ± 2 µM | – | – | 75 ± 3 µM | 44 ± 1 µM | – | 74 ± 2 µM | –
Cc1cc(S(=O)(=O)N=C2NCCN2)c(SCc2nc(N)nc(N(C)c3ccc(Cl)cc3)n2)cc1Cl [Compound 29] | 25 ± 0.5 µM | – | – | 43 ± 2 µM | 24 ± 0.2 µM | – | 32 ± 0.3 µM | –
Cc1cc(S(=O)(=O)N=C2NCCN2Cc2ccc(C(F)(F)F)cc2)c(SCc2nc(N)nc(N3CC=C(c4ccc(F)cc4)CC3)n2)cc1Cl [Compound 143] | 4.6 ± 0.1 µM | – | – | 19 ± 1 µM | 6 ± 0.3 µM | – | 7 ± 0.4 µM | –
